# Measured values taken from US8314132B2, “5-aryl-4-(5-substituted 2,4-dihydroxyphenyl)-1,2,3-thiadiazoles as inhibitors of Hsp90 chaperone and the intermediates for production thereof” (Biotechnologijos Institutas, priority 2008, dated 2012).
# Legend:
# [1] = test system: U2OS (osteosarcoma) cells; test: Growth inhibition (GI50), XTT cell viability assay, U2OS; type: cell-based; conditions: Homo sapiens, 72 h, 3 days, read-out: growth inhibition constants (GI50), U2OS
# Description: (§1) The growth inhibition constants of the compounds were determined in two cancer cell lines: U2OS (osteosarcoma) and HeLa (cervical carcinoma). Cells were maintained in DMEM (HeLa) and a 50-50% mixture of DMEM and F-12 media (U2OS) supplemented with 10% fetal bovine serum. Stock solutions (20 mM) of the tested compounds were prepared in 100% dimethyl-sulfoxide (DMSO). Cells, cultured in 24-well plates, were subjected to a range of concentrations of the compounds ([…]) at 0.25% DMSO. After 3 days, cell viability was assayed using XTT (sodium salt of 2,3-bis[2-Methoxy-4-nitro-5-sulfophenyl]-2H-tetrazolium-5-carboxyanilide inner salt) and PMS (phenazine methosulfate) reagents (Scudiero et al. 1988. Cancer Res. 48, 4827-4833). Stock solutions of XTT (1 mg/ml) and PMS (1.53 mg/ml) were prepared in Hank's buffered saline (HBS). Culture medium in each well was replaced by 100 μl of OptiMEM media (Life technologies) containing 35 μg/ml XTT and 0.27 μg/ml PMS. Cells were returned to the incubator for 15-20 min. Quantity of viable cells in each well was evaluated spectrophotometrically measuring the absorbance of XTT formazan at 470 nm. Each experiment was run in duplicate.
# [2] = test system: HeLa (cervical carcinoma) cells; test: Growth inhibition (GI50), XTT cell viability assay, HeLa; type: cell-based; conditions: Homo sapiens, 72 h, 3 days, read-out: GI50 constants, HeLa
# Description: as §1
Compound,GI50 [1] [µM],GI50 [2] [µM]
"COc1ccc(-c2snnc2-c2cc(Cl)c(O)cc2O)cc1 [compound 3a, 4-(5-chloro-2,4-dihydroxyphenyl)-5-(4-methoxyphenyl)-1,2,3-thiadiazole]",8.4 ± 1.2,2.5 ± 0.1
"CCOc1ccc(-c2snnc2-c2cc(Cl)c(O)cc2O)cc1 [compound 3b, 4-(5-chloro-2,4-dihydroxyphenyl)-5-(4-ethoxyphenyl)-1,2,3-thiadiazole]",15.1 ± 3.4,4.2 ± 0.4
"Cc1ccc(-c2snnc2-c2cc(Cl)c(O)cc2O)cc1 [compound 3c, 4-(5-chloro-2,4-dihydroxyphenyl)-5-(4-methylphenyl)-1,2,3-thiadiazole]",7.1 ± 0.1,3.3 ± 0.1
"COc1ccc(-c2snnc2-c2cc(Cl)c(O)cc2O)cc1OC [compound 3d, 4-(5-chloro-2,4-dihydroxyphenyl)-5-(3,4-dimethoxyphenyl)-1,2,3-thiadiazole]",11.5 ± 0.1,3.6 ± 0.3
"CCOc1ccc(-c2snnc2-c2cc(CC)c(O)cc2O)cc1 [compound 3e, 4-(5-ethyl-2,4-dihydroxyphenyl)-5-(4-ethoxyphenyl)-1,2,3-thiadiazole]",0.65 ± 0.08,0.7 ± 0.04
